Results: paper PMC5666843, “Seco-B-Ring Steroidal Dienynes with Aromatic D Ring: Design, Synthesis and Biological Evaluation” (International Journal of Molecular Sciences, 2017)
pIC50: −log10 of the molar value.

Biological target: T1, recombinant human VDR (hVDR, vitamin D receptor) (Homo sapiens, UniProt P11473)
T1 sequence (P11473 1-427): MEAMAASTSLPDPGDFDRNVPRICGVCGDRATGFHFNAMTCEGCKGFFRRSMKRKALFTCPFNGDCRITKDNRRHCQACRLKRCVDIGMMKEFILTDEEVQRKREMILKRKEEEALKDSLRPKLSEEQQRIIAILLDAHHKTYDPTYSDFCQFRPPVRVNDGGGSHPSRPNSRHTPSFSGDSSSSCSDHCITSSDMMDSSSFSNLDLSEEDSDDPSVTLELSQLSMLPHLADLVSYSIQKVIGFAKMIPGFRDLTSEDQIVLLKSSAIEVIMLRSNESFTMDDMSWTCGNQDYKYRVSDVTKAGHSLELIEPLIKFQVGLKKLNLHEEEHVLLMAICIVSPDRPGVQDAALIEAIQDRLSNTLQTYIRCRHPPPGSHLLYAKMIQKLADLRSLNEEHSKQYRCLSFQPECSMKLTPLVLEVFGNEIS
Test: fluorescence polarization competition assay (PolarScreen)
Format: binding
Details: read-out: 6
Excerpt: fluorescence polarization competition assay (PolarScreen) on recombinant human VDR (hVDR, vitamin D receptor)

For `C=C1[C@H](O)C(C)=C(C#CC2=CCCc3c2cccc3[C@H](C)CCCC(C)(C)O)C[C@H]1O` [compound 6, (1R,3S,1′′R)-5-[5′-(5′′-Hydroxy-1′′,5′′-dimethylhexyl)-3′,4′-dihydro-naphthalen-1′-ylethynyl]-4-methyl-2-methylene-cyclohex-4-ene-1,3-diol], the pIC50 was 7.55.
